{"source": "patent US6383814B1", "about": "“Cationic amphiphiles for intracellular delivery of therapeutic molecules” (Genzyme Corporation, priority 1994, dated 2002)", "key": {"[1]": {"test": "Transgene expression by protonation state of the amphiphile in transfecting composition with DOPE", "conditions": "amphiphile as free base; with DOPE zwitterion; plasmid DNA sodium salt in water", "text": "An additional aspect of the invention concerns the protonation state of the cationic amphiphiles of the invention prior to their contacting plasmid DNA in order to form a therapeutic composition. It is within the practice of the invention to utilize fully protonated, partially protonated, or free base forms of the amphiphiles in order to form such therapeutic compositions. With respect to amphiphile No. 67 (spermine cholesterol carbamate), it has been observed that when providing this amphiphile for a transfecting composition with DOPE (itself provided as a zwitterion), transgene expression was best for the free base, but decreased if the amphiphile was prepared as an acetate salt. […] Under the circumstances described, the plasmid DNA provided for contacting with the amphiphile was prepared (without buffer) as a sodium salt in water."}, "[2]": {"test": "Transacylation reaction of amphiphile with co-lipid DOPE on co-storage", "format": "physicochemical", "text": "Although heretofore unrecognized in the art, it has been determined also that certain co-lipids may react chemically with certain types of cationic amphiphiles under conditions of co-storage, there resulting new molecular species. Generation of such new species is believed to occur via mechanisms such as transacylation. In this regard, see FIG. 4 which depicts a transacylation reaction involving spermine cholesterol carbamate (No.67) and DOPE, there resulting lyso PE species and multiple forms of particular acyl-cationic amphiphile (designated No. 80).\nIt is expected that these phenomena would also apply to lyophilized amphiphile/DOPE preparations.\nAccordingly, it is highly preferred to maintain such amphiphile/DOPE preparations at very cold temperatures, such as −70 degrees C."}, "lungs of mice": {"test_system": "lungs of mice", "test": "CAT assay, parts B and C: intra-nasal, pCF1/CAT or pCF2/CAT vectors", "conditions": "mouse", "text": "That the novel amphiphiles of the invention are an important contribution to the art is immediately seen by comparing their performance—as in vivo transfection enhancers—to that of closely related cationic amphiphiles that lack the novel T-shape. It has been determined that spermidine cholesterol carbamate provides a much greater level of enhancement than N^1-spermidine cholesteryl carbamate which contains the same number of carbon and nitrogen atoms in its cationic alkylamine component but which is linear and not “T-shaped”. Following generally the procedures of Example 3, part B, and using respectively 6 mM (as nucleotide), 1.5 mM, and 1.5 mM concentrations of DNA, amphiphile and of co-lipid, the transfection enhancement provided by spermidine cholesterol carbamate (amphiphile No.53), in relation to N^1-spermidine cholesteryl carbamate, was determined to be about 30 fold.\nAlso following the procedures of Example 3, part B, and using respectively 4 mM (as nucleotide), 1 mM, and 2 mM concentrations of DNA, amphiphile and co-lipid, the transfection enhancement provided by spermine cholesterol carbamate (amphiphile No. 67)—in relation to N^1-thermospermine cholesteryl carbamate and N^1-spermine cholesteryl carbamate to which spermine cholesterol carbamate is similarly related—is at least about 30 fold."}, "[3]": {"test_system": "Primary nasal polyp cells from a cystic fibrosis patient (Δ F508)", "test": "cAMP-stimulated transepithelial chloride secretion in modified Ussing chamber after pCMV-CFTR transfection", "format": "cell-based, human", "conditions": "1:1 with DOPE; 42 μmolar amphiphile, 60 μmolar pCMV-CFTR; forskolin and IBMX", "experimental": "Primary (non-immortalized) nasal polyp cells from an adult cystic fibrosis patient (homozygous for the Δ F508mutation) were grown on collagen-coated permeable filter supports (Millicells) to form a polarized and confluent epithelial monolayer. Once the monolayer was electrically tight (about 5 to 7 days post seeding, and as indicated by the development of resistance across the cell sheet), the apical surface can be exposed to formulations of cationic amphiphile: DNA complex.\nIn this case, the amphiphile (spermidine cholesterol carbamate) was provided as a 1:1 (by mole) mixture with DOPE, and this mixture was then complexed with pCMV-CFTR plasmid vector (a construct encoding wild type human cystic fibrosis transmembrane conductance regulator protein, see above). Concentrations in the final mixture were 42 μmolar of spermidine cholesterol carbamate (and also of DOPE) and 60 μmolar (based on morality in nucleotides) of the plasmid expression vector.\nExpression of CFTR was determined by measuring cAMP-stimulated transepithelial chloride secretion in a modified Ussing chamber, Zabner et al., Nature Genetics, 6, 75-83 […]. The mucosal side of the epithelium was bathed in Ringer's bicarbonate solution bubbled with 95% O2 and 5% CO2. […] Transepithelial voltage was clamped to 0 m V and short circuit current was recorded. […]"}, "lung and heart": {"test_system": "lung and heart", "test": "Intravenous delivery of pCF-1CAT complex, CAT expression in organs", "format": "in vivo, BALB/c mouse", "conditions": "for organ distribution of CAT expression: DNA 0.9 mM, i.v. tail vein, 48 h", "experimental": "The reporter plasmid pCF-1CAT (Example 4) was used and was purified to minimize endotoxin (<1 EU/mg pDNA), and also chromosomal DNA contamination (<2%). Amphiphile No. 53 (1:1 with DOPE)/DNA complex was prepared according to the procedures of Example 3. The amphiphile was provided as the free base, the plasmid was prepared as a sodium salt in water, and the DOPE was provided in zwitterionic form.\nThe animal model was the BALB/c mouse. Females 6-8 weeks old weighing 16-18 g were injected intravenously using the tail vein, using 5 animals per group. The volume of lipid:pDNA complex used was 100 μl in all experiments. Unless noted otherwise, mice were sacrificed 48 h following administration of the complex. Organs were frozen immediately on dry ice to store for subsequent analysis.\nExpression of chloramphenicol acetyl transferase (CAT) was quantitated using a radiochemical assay for CAT enzymatic activity. Organs Were weighed and homogenized on ice in a lysis buffer containing protease inhibitors. The lysate was freeze-thawed 3×, centrifuged, and heated to 65° C. to inactivate deacetylases before adding it to a reaction mixture containing ^14C-chloraamphenicol. After an incubation at 37° C., the mixture was extracted with ethyl acetate, concentrated, spotted onto TLC plates and eluted with CHCl3/MeOH. Spots corresponding to the acylated reaction products were quantitated (Betagen) and converted to ng CAT activity using authentic CAT standards."}, "[4]": {"test": "Excipient selection against amphiphile/DNA aggregate formation", "format": "physicochemical", "conditions": "particularly as DNA concentration is increased", "text": "Additionally, the therapeutic compositions of the invention can in general be formulated with excipients (such as the carbohydrates lactose, trehalose, sucrose, mannitol, maltose or galactose) and may also be lyophilized (and then rehydrated) in the presence of such excipients prior to use. Conditions of optimized formulation for each amphiphile of the invention are capable of determination by those skilled in the pharmaceutical art. […] Addition of such excipients maintains the consistency of lyophilized pharmaceutical compositions during storage, and prevent difficulties such as aggregation, or insolubity, that may likely occur upon rehydration from the lyophilized state."}, "[5]": {"test_system": "Immortalized human cystic fibrosis airway cells (CFT-1)", "test": "SPQ assay of cAMP-stimulated Cl− channel activity after pCMV-CFTR transfection", "format": "cell-based", "experimental": "Immortalized human cystic fibrosis airway cells (CFT-1, as above) were used.\nIn preparation for the assay, the cells were grown on glass coverslips until approximately 60% confluent The cells were hen transfected with a complex of spermidine cholesterol carbamate:DOPE (1:1) and a plasmid(pCMV-CFTR) containing a cDNA that encodes wild type human CFTR pCMV-CFTR plasmid is a construct containing the encoding sequence for CFTR and the following regulatory elements, a CMV promoter and enhancer, and an SV40 polyadenylation signal. Additional constructs suitable for the practice of this example include pMT-CFTR, Cheng et al., Cell, 63,827-834 (1990). The complex used was 10.5 μmolar of spermidine cholesterol carbamate (also of DOPE) and 30 μmolar of pCMV-CFTR based on nucleotide.\n48 hours after amphiphile-mediated transfection, cells were tested for cAMP-stimulated Cl^− channel activity using the 6-methoxy-N-(3-sulfopropyl)quinolinium (“SPQ”) assay. […] In the assay, cAMP-dependent Cl^− channel activity was assessed using “SPQ” (from Molecular Probes, Eugene, Oreg.), a halide-sensitive fluorophore. Increases in halide permeability results in a more rapid increase in SPQ fluorescence, and the rate of change (rather than the absolute change in fluorescence) is the important variable in assessing Cl^− permeability. […]"}, "[6]": {"test_system": "CFT-1 cell line (human cystic fibrosis bronchial epithelial cells)", "test": "Cell transfection assay (β-galactosidase expression)", "format": "cell-based", "conditions": "1:1 mixture with DOPE, pCMVβ", "quoted_text": "Following combination of the solutions, a thin film was produced by removing chloroform from the mixture by evaporation under reduced pressure (20 mm Hg). The film was further dried under vacuum (1 mm Hg) for 24 hours.\nThe resulting suspension was then diluted with 4 ml of water to yield a solution that is 670 μM in cationic amphiphile and 670 μM in neutral colipid.\nFor preparation of the transfecting solution, DNA encoding for β-galactosidase (pCMVβ, ClonTech., Palo Alto, Calif.) was dissolved in OptiMEM culture medium (Gibco/BRL No. 31885-013).\nThe resulting 335 μM solutions were then serially diluted 7 times to generate 8 separate amphiphile-containing solutions having concentrations ranging from 335 μM to 2.63 μM, with each resultant solution having a volume of 165 μl. Thus, 64 solutions were prepared in all, there being 8 wells each of 8 different concentrations of amphiphile/DOPE.\nIndependently, DNA solutions (165μl, 960 μM) were pipetted into 8 wells containing OptiMEM (165 μl), and the resulting 480 μM solutions were then serially diluted 7 times to generate 8 separate 165 μl solutions from each well, with the concentrations of DNA in the wells ranging from 480 μM to 3.75 μM. […]"}, "lungs of balb/c mice": {"test_system": "lungs of balb/c mice", "experimental": "This assay was used to assess the ability of the cationic amphiphiles of the invention to transfect cells in vivo from live specimens. In the assay, the lungs of balb/c mice were instilled intra-nasally (the procedure can also be performed trans-tracheally) with 100 μl of cationic amphiphile:DNA complex, which was allowed to form during a 15-minute period prior to administration according to the following procedure. The amphiphile (premixed with co-lipid, see below) was hydrated in water for 10 minutes, a period sufficient to yield a suspension at twice the final concentration required. This was vortexed for two minutes and aliquoted to provide 55 microliter quantities for each mouse to be instilled. Similarly, DNA encoding the reporter (CAT) gene was diluted with water to a concentration twice the required final concentration, and then aliquoted at 55 microliters for each mouse to be instilled. The lipid was gently combined with the DNA (in a polystyrene tube), and the complex allowed to form for 15 minutes before the mice were instilled therewith.\nThe plasmid used (pCMVHI-CAT, see Example 4) provides an encoding DNA for chloramphenicol transferase enzyme. Specifics on the amphiphile:DNA complexes are provided below.\nTwo days following transfection, mice were sacrificed, and the lungs and trachea removed, weighed, and homogenized in a buffer solution (250 mM Tris, pH 7.8, 5 mM EDTA). The homogenate was darifed by centrifugation, and the deacetylases therein were inactivated by heat treatment at 70° C. for 10 minutes. Lysate was incubated overnight with acetyl coenzyme A and C^14-chloramphenicol. CAT enzyme activity was then visualized by thin layer chromatography (“TLC”) following an ethyl acetate extraction.\nThe presence of the enzyme CAT will cause an acetyl group to be transferred from acetyl coenzyme A to C^14-chloramphenicol. The acetylated/radiolabeled chloramphenicol migrates faster on a TLC plate and thus its presence can be detected.\nWith respect to the comparison provided by FIG. 10, the following conditions are of note. The transfection solution for spermidine cholesterol carbamate contained 6 mM DNA measured as concentration of nucleotide, and 1.5 mM of cationic amphiphile. […] For transfection with DC-chol, the molar ratio of DC-chol to DOPE was 3:2, and the concentrations of cationic amphiphile and of DNA (as nucleotide) were 1.3 mM and 0.9 mM, respectively. For transfection with DMRIE, the molar ratio of DMRIE to DOPE was 1:1 and the concentrations of cationic amphiphile and of DNA were 1.7 mM and 12 mM, respectively."}, "[7]": {"conditions": "1.0-1.5 mM amphiphile, cholesterol 1:1, DNA 4.0-6.0 mM, intra-nasal"}}}
{"molecule": "CC(C)CCCC(C)C1CCC2C3CC=C4CC(OC(=O)N(CCCN)CCCCNCCCN)CCC4(C)C3CCC12C", "note": "(stereo not drawn) [amphiphile No. 67, N^4-spermine cholesteryl carbamate]", "values": [{"measurement": "transgene expression", "setting": "[1]", "value": "best"}, {"measurement": "transacylation with DOPE", "setting": "[2]; amphiphile as mono, di, or tri acetate salt", "value": "slow transacylations"}, {"measurement": "transacylation with DOPE", "setting": "[2]; aqueous solution where bilayer-containing structures such as liposomes can form", "value": "will permit transacylation"}, {"measurement": "transacylation with DOPE", "setting": "[2]; mixture of amphiphile and DOPE in chloroform solvent", "value": "does not appear to participate"}, {"measurement": "activity of amphiphile (in vivo transfection)", "setting": "lungs of mice", "value": "highly active"}, {"measurement": "in vivo transfection in comparison with non T-shaped amphiphiles having equivalent cationic alkylamine structure", "setting": "lungs of mice", "value": "superior transfectants"}]}
{"molecule": "CC(C)CCCC(C)C1CCC2C3CC=C4CC(OC(=O)N(CCCN)CCCCN)CCC4(C)C3CCC12C", "note": "(stereo not drawn) [amphiphile No. 53, N^4-spermidine cholesteryl carbamate]", "values": [{"measurement": "cAMP-stimulated current", "setting": "[3]", "value": "0.5 to 2.5", "unit": "μampere/cm^2"}, {"measurement": "organ distribution of CAT expression", "setting": "lung and heart; amphiphile/DNA molar ratio less than about 0.5", "value": "strongly weighted toward the lung"}, {"measurement": "organ distribution of CAT expression", "setting": "lung and heart; amphiphile/DNA ratio of 1.25", "value": "substantial expression was found in the heart"}, {"measurement": "targeting to the lung over a range of amphiphile/DNA ratios", "setting": "lung and heart; constant DNA concentration 0.9 mM, i.v.", "value": "remained relatively constant"}, {"measurement": "excipient preferred to prevent formation of amphiphile/DNA aggregates", "setting": "[4]", "value": "sucrose is preferred over mannitol"}, {"measurement": "transferring CFTR-encoding plasmid into immortalized CF airway cells", "setting": "[5]", "value": "effective"}, {"measurement": "transfection efficiency improved by a factor, relative to DMRIE:DOPE (1:1)", "setting": "[6]", "value": "about 5"}, {"measurement": "enhancement of in vivo transfection (ng CAT activity per 100 mg tissue) in relation to DMRIE and DC-Chol", "setting": "lungs of balb/c mice; 1.5 mM amphiphile, 1:1 DOPE, 6 mM DNA (nucleotide), intra-nasal, 2 days", "value": "≥ 20", "unit": "fold"}, {"measurement": "transfection efficiency (ng CAT/100 mg tissue) with cholesterol as co-lipid, compared with DOPE as co-lipid", "setting": "lungs of balb/c mice; [7]", "value": "less effective"}, {"measurement": "transfection with cholesterol as co-lipid, compared with DC-Chol/DOPE", "setting": "lungs of balb/c mice; [7]", "value": "substantially more effective"}, {"measurement": "toxicity to the target cells", "setting": "lungs of balb/c mice; about 0.75 mM amphiphile and 3.0 mM plasmid, versus the optimal 1.5 mM/6 mM", "value": "less toxic"}, {"measurement": "activity of amphiphile (in vivo transfection)", "setting": "lungs of mice", "value": "highly active"}, {"measurement": "in vivo transfection in comparison with non T-shaped amphiphiles having equivalent cationic alkylamine structure", "setting": "lungs of mice", "value": "superior transfectants"}]}
{"molecule": "CC(C)CCC[C@@H](C)[C@H]1CC[C@H]2[C@@H]3CC=C4C[C@@H](OC(=O)N(CCCCNCCCN)CCCNCCCN)CC[C@]4(C)[C@H]3CC[C@]12C", "note": "[amphiphile No. 75, N^1,N^8-Bis(3-aminopropyl)-N^4-spermidine cholesteryl carbamate]", "values": [{"measurement": "activity of amphiphile (in vivo transfection)", "setting": "lungs of mice", "value": "highly active"}]}
{"molecule": "1,2-dimyristyloxypropyl-3-dimethyl-hydroxyethyl ammonium bromide [DMRIE, reference compound]", "values": [{"measurement": "CAT activity in lung", "setting": "lungs of balb/c mice; 1:1 molar with DOPE, 1.7 mM DMRIE, 1.7 mM DOPE, 1.2 mM plasmid DNA as nucleotide", "value": "1 to 2 ng activity per 100 mg lung tissue"}]}
